Laboratory results from PMC13600695, “Identifying a novel mechanism of L-leucine uptake in Mycobacterium tuberculosis using a chemical genomic approach” (eLife, 2026).

Target: PpsB (6x His-PpsB) (Mycobacterium tuberculosis, UniProt P9WQE5)
Test: biochemical

Chain of PpsB (6x His-PpsB) (P9WQE5 whole entry): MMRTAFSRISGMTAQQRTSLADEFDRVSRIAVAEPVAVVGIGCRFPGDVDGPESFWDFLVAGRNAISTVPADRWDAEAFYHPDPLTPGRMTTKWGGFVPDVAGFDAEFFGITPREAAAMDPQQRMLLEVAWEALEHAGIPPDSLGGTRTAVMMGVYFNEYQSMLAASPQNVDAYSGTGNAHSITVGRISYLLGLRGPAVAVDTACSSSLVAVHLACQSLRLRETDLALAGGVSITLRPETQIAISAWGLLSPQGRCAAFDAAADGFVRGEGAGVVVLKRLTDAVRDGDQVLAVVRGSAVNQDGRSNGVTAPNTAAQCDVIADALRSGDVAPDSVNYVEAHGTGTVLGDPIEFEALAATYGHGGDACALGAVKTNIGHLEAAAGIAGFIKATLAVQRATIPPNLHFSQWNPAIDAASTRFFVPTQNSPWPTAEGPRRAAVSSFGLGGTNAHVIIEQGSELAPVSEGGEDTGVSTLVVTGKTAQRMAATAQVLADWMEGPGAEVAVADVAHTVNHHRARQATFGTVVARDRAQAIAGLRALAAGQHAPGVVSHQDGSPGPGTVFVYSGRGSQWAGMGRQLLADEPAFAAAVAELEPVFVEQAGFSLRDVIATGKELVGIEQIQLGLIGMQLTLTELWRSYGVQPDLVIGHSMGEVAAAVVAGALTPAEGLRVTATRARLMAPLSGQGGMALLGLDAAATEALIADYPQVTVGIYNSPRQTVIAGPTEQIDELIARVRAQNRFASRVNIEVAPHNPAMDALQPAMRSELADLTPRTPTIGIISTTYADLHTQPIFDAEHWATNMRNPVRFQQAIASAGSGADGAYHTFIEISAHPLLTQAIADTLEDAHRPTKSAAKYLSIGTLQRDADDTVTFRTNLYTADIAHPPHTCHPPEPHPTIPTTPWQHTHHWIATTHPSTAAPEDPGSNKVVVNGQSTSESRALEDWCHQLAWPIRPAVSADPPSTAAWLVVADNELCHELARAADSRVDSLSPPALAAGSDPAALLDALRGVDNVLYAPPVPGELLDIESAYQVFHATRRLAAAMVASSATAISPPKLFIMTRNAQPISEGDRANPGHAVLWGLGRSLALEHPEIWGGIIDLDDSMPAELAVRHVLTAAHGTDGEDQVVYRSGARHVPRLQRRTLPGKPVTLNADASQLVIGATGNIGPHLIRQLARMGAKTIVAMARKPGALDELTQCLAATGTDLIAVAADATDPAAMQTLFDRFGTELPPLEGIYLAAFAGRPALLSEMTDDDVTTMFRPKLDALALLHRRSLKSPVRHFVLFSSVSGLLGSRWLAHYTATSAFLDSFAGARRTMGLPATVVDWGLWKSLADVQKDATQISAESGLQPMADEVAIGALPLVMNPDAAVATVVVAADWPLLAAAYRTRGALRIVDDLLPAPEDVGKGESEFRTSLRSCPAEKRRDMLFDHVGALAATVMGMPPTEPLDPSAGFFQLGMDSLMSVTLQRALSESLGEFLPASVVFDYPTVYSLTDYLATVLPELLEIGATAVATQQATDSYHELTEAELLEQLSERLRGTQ

C/C(=N\NC(=N)N)c1cc(NC(=O)CCCCCCCCC(=O)Nc2cc(/C(C)=N/NC(=N)N)cc(/C(C)=N/NC(=N)N)c2)cc(/C(C)=N/NC(=N)N)c1 [semapimod] showed a Kd of 0.11 µM.
